{"source": "paper PMC7583056", "about": "“Synthesis, Characterisation and In Vitro Anticancer Activity of Catalytically Active Indole-Based Half-Sandwich Complexes” (Molecules, 2020)", "key": {"[1]": {"test": "Stability in d6-DMSO by 1H-NMR", "format": "physicochemical", "details": "1.1 mM; for Release of the ind-py ligand (decoordination rate): over 24 h; for Release of the ind-py ligand (decoordination rate) / Time to reach equilibrium with second species (DMSO-adduct): 1H-NMR; for Stability in DMSO (in words): 24 h, after equilibrium with DMSO-adduct", "protocol": "(§1) Owing to the limited aqueous solubility of the complexes, all the reactivity experiments were performed using a mixture MeOD/D2O (1:1 v/v) as a solvent. The stability of complexes 1–4 in MeOD/D2O was studied via ^1H-NMR spectroscopy over a period of 24 h. […] The stability of complexes 1–4 in dimethylsulfoxide (DMSO;1.1 mM) was also studied by ^1H-NMR spectroscopy over a period of 24 h (Figure S1). […] The ligand ind-py is also stable in MeOD/D2O over 24 h (Figure S1E).\nComplexes 1–4 were also dissolved in d6-DMSO (1.1 mM) and ^1H-NMR spectra were recorded at t ≤ 10 min, 12 h and 24 h."}, "[2]": {"test": "pKa determination by UV-Vis spectroscopy at increasing pH", "format": "physicochemical", "details": "6% acetonitrile/water v/v; for pKa: UV-Vis, aqua adduct, pH 7–12", "protocol": "The pKa values for the complexes were measured by dissolving the compounds in 6% acetonitrile/water v/v (aqua adduct formed) and by recording the UV-Vis spectra of the samples at increasing pH (pH 7–12). pKa values of the complexes were calculated using Origin 2018 by plotting the absorbance at the corresponding wavelength against the pH and fitting it to the Boltzmann equation to obtain the inflection point. For complexes 2–4, the pKa values were calculated to be around 10 (Materials and Methods section and Table 1). The pKa of compound 1 could not be calculated, as the absorbance bands for the aqua- and the hydroxo- compounds overlap; however, changes could only be observed at pH values higher than 10. These pKa values are high, although such a decrease in acidity has been previously reported (generally attributed to an increased electron density on the metal centre). As a consequence of such high pKa, only the aqua adduct of the metal complexes is expected to be present at physiological pH (7.4), thus favouring the reaction between the metal complexes with possible ligands such as nucleobases or proteins.\nComplexes 1–4 were dissolved in acetonitrile/H2O 6:94 v/v and UV-Vis spectra of the sample were recorded increasing the pH (pH 7–12). pKa vales of the complexes were calculated using Origin 2018 by plotting the absorbance against the pH."}, "[3]": {"test_system": "A2780cisR cells", "test": "Chemosensitivity assay (MTT) in A2780cisR cells", "format": "cell-based", "details": "for IC50: 24 h exposure + 48 h recovery, MTT, mean ± SD", "excerpt": "(§2) The antiproliferative activity of the ind-py ligand and of complexes 1–4 against ovarian cancer A2780 (cisplatin sensitive) and A2780cisR (cisplatin resistant) cell lines was studied. The IC50 values obtained for all the complexes are shown in Table 2, together with values for cisplatin, which was used as a positive control (untreated cells for 100% viability as negative control). […] One of the major limitations of existing anticancer drugs is their poor selectivity towards cancer cells. Comparing the response of the cancer cell lines to the normal PNT2 cells provides a preliminary indication towards the selectivity of the compounds.\n(§3) In vitro chemosensitivity tests were performed against A2780, A2780cisR and PNT2 cells. Cells were routinely maintained as monolayer cultures in RPMI medium supplemented with 10% foetal calf serum, penicillin (100 I.U./mL) and streptomycin (100 μg/mL), sodium pyruvate (1 mM) and L-glutamine (2 mM). For chemosensitivity studies, cells were incubated in 96-well plates at a concentration of 7.5 × 10^3 cells per well and the plates were incubated for 24 h at 37 °C and a 5% CO2 humidified atmosphere prior to drug exposure.\n(§4) Complexes were dissolved in DMSO to provide stock solutions, which were further diluted with media to provide a range of final concentrations. Drug-media solutions were added to cells (the final concentration of DMSO was less than 1% (v/v) in all cases) and incubated for 24 h at 37 °C and 5% CO2 humidified atmosphere. The drug-media was removed from the wells and the cells were washed with PBS (100 μL, twice), and 100 μL of complete fresh media were added to each well. The plates were further incubated for 48 h at 37 °C in a 5% CO2 humidified atmosphere to allow for a period of recovery. 3-(4,5-dimethylthiazol-2-yl)-2,5-diphenyltetrazolium bromide (MTT) (20 μL, 2.5 mg/mL) was added to each well and incubated for 2 h at 37 °C and 5% CO2 humidified atmosphere. All solutions were then removed and 100 μL of DMSO was added to each well in order to dissolve the purple formazan crystals. A Thermo Scientific Multiskan EX microplate photometer was used to measure the absorbance in each well at 570 nm. Cell survival was determined as the absorbance of treated cells divided by the absorbance of controls and expressed as a percentage. The IC50 values were determined from plots of % survival against drug concentration. Each experiment was repeated in triplicates of triplicates and a mean value was obtained and stated as IC50 (μM) ± SD. Cisplatin was also used as a positive control."}, "[4]": {"test_system": "9-ethylguanine (9-EtG)", "test": "Binding constant towards 9-EtG by 1H-NMR titration", "details": "complex 1.1 mM in MeOD/D2O (1:1 v/v), non-linear fit", "protocol": "Binding constant of complexes 1, 3 and 4 with 9-EtG were calculated using the non-linear ThordarsonFittingProgram (Table 1). The binding constant for complex 2 was not calculated due to solubility issues. The magnitude of the binding constants (10^3–10^4 M^−1) is low compared to the usually observed complexation constants in coordination chemistry (>>10^6 M^−1), and is in the range of binding constants observed in host-guest inorganic chemistry (e.g., via non-covalent interactions between a metalla-cage and an aromatic planar guest molecule).\nThe reactions of complexes 1–4 with 9-ethylguanine (9-EtG) and 9-methyladenine (9-MetA) were studied. MeOD solutions of complexes 1–4 (2.2 mM) were mixed with a solution of the corresponding nucleobase in D2O (4.4 mM) and the pH adjusted to 7.4 ± 0.2. Final concentrations of 1.1 mM for the complex and 2.2 mM for the nucleobase were obtained. ^1H-NMR spectra of the resulting mixture were recorded at t ≤ 10 min, 5 h and 24 h in MeOD/D2O (1:1 v/v).\nA titration using 9-EtG at increasing concentrations was performed and the resulting samples were analysed using ^1H-NMR spectroscopy. Binding constants were calculated using the non-linear ThordarsonFittingProgram by plotting the chemical shift of the complex versus the concentration of 9-EtG. Alternatively, binding constant for complexes 3 and 4 was obtained by plotting the ratio of 9-EtG adduct/complex against the concentration of 9-EtG."}, "[5]": {"test_system": "PNT2 cells", "test": "Chemosensitivity assay (MTT) in PNT2 cells", "format": "cell-based", "details": "24 h exposure + 48 h recovery, MTT; mean ± SD", "excerpt": "as §2, §3, §4"}, "[6]": {"test": "Solubility as observed", "format": "physicochemical", "details": "MeOD/D2O 1:1 v/v, 1.1 mM", "protocol": "as §1"}}}
{"compound": "Cc1c(C)c(C)[c-](C)c1C.[Cl-].[Rh+3].c1ccc(-c2cc3ccccc3[n-]2)nc1", "note": "[complex 1, [Cp*Rh(ind-py)Cl]]", "values": [{"measurement": "Release of the ind-py ligand (decoordination rate)", "setting": "[1]", "value": 25, "unit": "%"}, {"measurement": "pH above which changes in the UV-Vis spectra could be observed", "setting": "[2]; pKa itself could not be calculated", "value": "higher than 10"}, {"measurement": "IC50", "setting": "[3]", "value": "21.5 ± 3.5", "unit": "µM"}, {"measurement": "K9-EtG (binding constant towards 9-EtG)", "setting": "[4]", "value": 25600, "unit": "M⁻¹"}, {"measurement": "IC50", "setting": "[5]", "value": "34.7 ± 6.1", "unit": "µM"}]}
{"compound": "Cc1c(C)c(C)[c-](C)c1C.[Cl-].[Ir+3].c1ccc(-c2cc3ccccc3[n-]2)nc1", "note": "[complex 2, [Cp*Ir(ind-py)Cl]]", "values": [{"measurement": "Solubility in MeOD/D2O (in words)", "setting": "[6]", "value": "poor solubility"}, {"measurement": "Release of the ind-py ligand (decoordination rate)", "setting": "[1]", "value": 25, "unit": "%"}, {"measurement": "pKa", "setting": "[2]", "value": "9.59 ± 0.09 (λ = 300 nm)"}, {"measurement": "IC50", "setting": "[3]", "value": "32.7 ± 1.7", "unit": "µM"}, {"measurement": "IC50", "setting": "[5]", "value": "32.1 ± 3.9", "unit": "µM"}]}
{"compound": "Cc1ccc(C(C)C)cc1.[Cl-].[Ru+2].c1ccc(-c2cc3ccccc3[n-]2)nc1", "note": "[complex 3, [(p-cym)Ru(ind-py)Cl]]", "values": [{"measurement": "Time to reach equilibrium with second species (DMSO-adduct)", "setting": "[1]", "value": "less than 10 min"}, {"measurement": "Stability in DMSO (in words)", "setting": "[1]", "value": "stable"}, {"measurement": "pKa", "setting": "[2]", "value": "10.63 ± 0.03 (λ = 255 nm)"}, {"measurement": "IC50", "setting": "[3]", "value": "62.8 ± 5.3", "unit": "µM"}, {"measurement": "K9-EtG (binding constant towards 9-EtG)", "setting": "[4]", "value": 71600, "unit": "M⁻¹"}, {"measurement": "IC50", "setting": "[5]", "value": "54.3 ± 5.4", "unit": "µM"}]}
{"compound": "Cc1ccc(C(C)C)cc1.[Cl-].[Os+2].c1ccc(-c2cc3ccccc3[n-]2)nc1", "note": "[complex 4, [(p-cym)Os(ind-py)Cl]]", "values": [{"measurement": "Time to reach equilibrium with second species (DMSO-adduct)", "setting": "[1]", "value": "less than 10 min"}, {"measurement": "Stability in DMSO (in words)", "setting": "[1]", "value": "stable"}, {"measurement": "pKa", "setting": "[2]", "value": "10.15 ± 0.04 (λ = 355 nm)"}, {"measurement": "IC50", "setting": "[3]", "value": "21.5 ± 1.3", "unit": "µM"}, {"measurement": "Activity against A2780cisR compared with A2780 (cross-resistance)", "setting": "[3]; comparison of IC50 values", "value": "no significant difference in activity"}, {"measurement": "K9-EtG (binding constant towards 9-EtG)", "setting": "[4]", "value": 95400, "unit": "M⁻¹"}, {"measurement": "IC50", "setting": "[5]", "value": "34.2 ± 2.2", "unit": "µM"}]}
